From patent publication US20260207623A1, “USE OF ESTETROL IN HEPATICALLY IMPAIRED PATIENTS” (ESTETRA SRL, priority 2022, published 2026)
Where two headings read alike, the source gives them in different places.

Experiment: Phase 1 pharmacokinetic study of a single oral dose of 20 mg E4 monohydrate in female subjects with normal hepatic function and mild, moderate or severe hepatic impairment (plasma, LC-MS/MS, non-compartmental analysis)
Type: in vivo, human
Conditions: for AUC0-24 h, GM / CL/F, GM / CL/F, Mean / CL/F, Median / Cmax, Mean / λz, GM / λz, Mean / λz, Median / Tmax / AUC(0-inf) / Cmax / AUC(0-t) / half-life / Vd/F: plasma; for Tmax / AUC(0-inf) / Cmax / AUC(0-t) / half-life / Vd/F: female, human, 20 mg
Procedure: This was a Phase 1, multi-centre, open-label, PK, and safety study of a single oral dose of 20 mg E4 monohydrate in female subjects with normal hepatic function (Group 1), mild hepatic impairment (Group 2), moderate hepatic impairment (Group 3), and severe hepatic impairment (Group 4), as defined using the Child-Pugh classification at Screening.
The study consisted of an eligibility Screening period (within 28 days prior to study drug administration), an Assessment Period with in-house period and outpatient visits (including a single oral dose of 20 mg E4 on Day 1), and a follow up visit. All subjects were confined to the study site from Day-1 (the day before dosing) until Day 4 and returned to the site every day from Day 5 to Day 9. Alternatively, the subjects could stay for a prolonged in-house period in agreement with the Investigator. The follow-up visit occurred on Day 14 (+2 days).
All subjects arrived at the study site in the morning of Day-1 in a fasted state (no food for at least 8 h, water was allowed) to have the scheduled assessments performed in order to confirm eligibility as outlined in the inclusion and exclusion criteria (Section 2.3.1 and Section 2.3.2, respectively). In the morning of Day 1 following an overnight fast, the subjects received oral dosing of 20 mg E4 monohydrate and remained at the site. Study-related assessments were performed at time points indicated in the Schedule of Assessments in Table 2.
Serial blood sampling for PK assessments started on Day 1 and proceeded until Day 9 according to the Pharmacokinetic Sampling Schedule presented in Table 3.
Each enrolled subject was to receive a single oral dose of 20 mg of E4 (estetrol) as monohydrate as a film-coated tablet.
Study drug was administered to subjects in the morning after an overnight fast of at least 8 h.
Calculation of non-compartmental PK parameters were done using WinNonlin™ Professional, Version 6.3 or higher.
The primary PK parameters to be analyzed for E4 in plasma: • Cmax=maximum observed plasma concentration • AUCinf=area under the concentration-time curve (AUC) from time zero extrapolated to infinity
The analysis of E4 and the metabolites E4-3-glucuronide and E4-16-glucuronide in plasma samples were performed at the Bioanalytical Laboratory of the CRO using a validated liquid chromatography-mass spectrometry/mass spectrometry method.
Individual and mean plasma concentrations at each sampling time point for E4 are presented by listings and descriptive summary statistics including means, geometric means (GMs), medians, ranges, standard deviations (SD) and coefficients of variation (CV). Individual, mean and/or median concentrations per hepatic function group were plotted versus time on semilogarithmic scales.
PK parameters were calculated by non-compartmental analysis. PK parameters were analysed using descriptive statistics and are presented by hepatic function group.
Analysis of variance (ANOVA) were used to compare primary PK parameters of E4 (Cmax and AUCinf) between subjects with hepatic impairment and subjects with normal hepatic function in an exploratory approach, using the log-transformed value of each PK parameter as dependent variable, and the hepatic impairment group (normal, mild, moderate, and severe) as a fixed classification factor. Geometric least squares means were used to calculate the ratios of primary PK parameters for each hepatic impairment group to those in the control group, along with 90% confidence intervals (CIs).
Additionally, the impact of age and BMI on the effect of hepatic impairment were evaluated using an ANOVA model similar as the ANOVA model described above, but with the interaction between each factor and the hepatic impairment group included as an additional factor.
The relationship between log-transformed PK parameters (Cmax and AUCinf) and continuous parameters (albumin, total bilirubin, and prothrombin time) used for the Child-Pugh score was explored by a linear regression approach. […]

[1] = Mild hepatic impairment, single oral dose 20 mg E4 monohydrate
[2] = Moderate hepatic impairment, single oral dose 20 mg E4 monohydrate
[3] = Moderate vs. Normal, one-way ANOVA
[4] = Normal hepatic function, single oral dose 20 mg E4 monohydrate
[5] = Severe hepatic impairment, single oral dose 20 mg E4 monohydrate
[6] = Severe vs. Normal, one-way ANOVA

C[C@]12CC[C@@H]3c4ccc(O)cc4CC[C@H]3[C@@H]1[C@@H](O)[C@@H](O)[C@@H]2O [E4, 1,3,5 (10)-estratrien-3,15alpha, 16alpha, 17beta-tetrol]
AUC0-24 h, GM [1]: 69.76 ng·h/mL
CL/F, GM [1]: 171.23 L/h
CL/F, Mean [1]: 177.13 L/h
CL/F, Median [1]: 188.75 L/h
Cmax, Mean [1]: 38.363 ng/mL
λz, GM [1]: 0.0300 h⁻¹
λz, Mean [1]: 0.0373 h⁻¹
λz, Median [1]: 0.0428 h⁻¹
AUCinf, Geometric Mean Ratio (Test/Reference) Estimate (Mild vs. Normal, one-way ANOVA): 1.120
Cmax, Geometric Mean Ratio (Test/Reference) Estimate (Mild vs. Normal, one-way ANOVA): 1.661
AUC0-24 h, GM [2]: 88.75 ng·h/mL
CL/F, GM [2]: 185.80 L/h
CL/F, Mean [2]: 214.77 L/h
CL/F, Median [2]: 175.13 L/h
Cmax, Mean [2]: 52.410 ng/mL
λz, GM [2]: 0.0500 h⁻¹
λz, Mean [2]: 0.0520 h⁻¹
λz, Median [2]: 0.0493 h⁻¹
AUCinf, Geometric Mean Ratio (Test/Reference) Estimate [3]: 1.032
Cmax, Geometric Mean Ratio (Test/Reference) Estimate [3]: 1.896
AUC0-24 h, GM [4]: 60.41 ng·h/mL
CL/F, GM [4]: 191.77 L/h
CL/F, Mean [4]: 200.09 L/h
CL/F, Median [4]: 177.60 L/h
Cmax, Mean [4]: 23.878 ng/mL
λz, GM [4]: 0.0300 h⁻¹
λz, Mean [4]: 0.0329 h⁻¹
λz, Median [4]: 0.0307 h⁻¹
AUC0-24 h, GM [5]: 179.05 ng·h/mL
CL/F, GM [5]: 101.25 L/h
CL/F, Mean [5]: 104.83 L/h
CL/F, Median [5]: 111.40 L/h
Cmax, Mean [5]: 117.025 ng/mL
λz, GM [5]: 0.0800 h⁻¹
λz, Mean [5]: 0.0905 h⁻¹
λz, Median [5]: 0.1108 h⁻¹
AUCinf, Geometric Mean Ratio (Test/Reference) Estimate [6]: 1.894
Cmax, Geometric Mean Ratio (Test/Reference) Estimate [6]: 5.359
plasma levels at 24 h after administration (comparison among hepatic function groups): in the same range among the different hepatic function groups
Tmax (oral, across all hepatic function groups, read-out: Tmax, range): 0.23 to 1.92 h
Tmax (oral, all hepatic function groups, read-out: Median Tmax, range over the hepatic function groups): 0.25 to 0.5 h
AUC(0-inf) (po, Mild (Test), one-way ANOVA, single oral dose 20 mg, read-out: AUCinf, Geometric LS Mean): 117 ng·h/mL
Cmax (po, Mild (Test), one-way ANOVA, single oral dose 20 mg, read-out: Cmax, Geometric LS Mean): 34.5 ng/mL
AUC(0-t) (po, Mild hepatic impairment, single oral dose 20 mg E4 monohydrate, read-out: AUC0-24 h, GM): 69.8 ng·h/mL
AUC(0-t) (po, Mild hepatic impairment, single oral dose 20 mg E4 monohydrate, read-out: AUC0-24 h, Mean): 72.9 ng·h/mL
AUC(0-t) (po, Mild hepatic impairment, single oral dose 20 mg E4 monohydrate, read-out: AUC0-24 h, Median): 66.3 ng·h/mL
AUC(0-inf) (po, Mild hepatic impairment, single oral dose 20 mg E4 monohydrate, read-out: AUCinf, GM): 117 ng·h/mL
AUC(0-inf) (po, Mild hepatic impairment, single oral dose 20 mg E4 monohydrate, read-out: AUCinf, Mean): 122 ng·h/mL
AUC(0-inf) (po, Mild hepatic impairment, single oral dose 20 mg E4 monohydrate, read-out: AUCinf, Median): 106 ng·h/mL
AUC(0-t) (po, Mild hepatic impairment, single oral dose 20 mg E4 monohydrate, read-out: AUClast, GM): 116 ng·h/mL
AUC(0-t) (po, Mild hepatic impairment, single oral dose 20 mg E4 monohydrate, read-out: AUClast, Mean): 121 ng·h/mL
AUC(0-t) (po, Mild hepatic impairment, single oral dose 20 mg E4 monohydrate, read-out: AUClast, Median): 105 ng·h/mL
Cmax (po, Mild hepatic impairment, single oral dose 20 mg E4 monohydrate, read-out: Cmax, GM): 34.5 ng/mL
Cmax (po, Mild hepatic impairment, single oral dose 20 mg E4 monohydrate, read-out: Cmax, Mean): ~38 ng/mL
Cmax (po, Mild hepatic impairment, single oral dose 20 mg E4 monohydrate, read-out: Cmax, Median): 34.9 ng/mL
half-life (po, Mild hepatic impairment, single oral dose 20 mg E4 monohydrate, read-out: T1/2, GM (converted)): 20.1 h
half-life (po, Mild hepatic impairment, single oral dose 20 mg E4 monohydrate, read-out: T1/2, Mean (converted)): 22.1 h
half-life (po, Mild hepatic impairment, single oral dose 20 mg E4 monohydrate, read-out: T1/2, Median (converted)): 16.2 h
Tmax (po, Mild hepatic impairment, single oral dose 20 mg E4 monohydrate, read-out: Tmax, Median): 0.375 h
Vd/F (po, Mild hepatic impairment, single oral dose 20 mg E4 monohydrate, read-out: Vz/F, GM): 4960 L
Vd/F (po, Mild hepatic impairment, single oral dose 20 mg E4 monohydrate, read-out: Vz/F, Mean): 5830 L
Vd/F (po, Mild hepatic impairment, single oral dose 20 mg E4 monohydrate, read-out: Vz/F, Median): 4800 L
AUC(0-inf) (po, Moderate (Test), one-way ANOVA, single oral dose 20 mg, read-out: AUCinf, Geometric LS Mean): 108 ng·h/mL
Cmax (po, Moderate (Test), one-way ANOVA, single oral dose 20 mg, read-out: Cmax, Geometric LS Mean): 39.4 ng/mL
AUC(0-t) (po, Moderate hepatic impairment, single oral dose 20 mg E4 monohydrate, read-out: AUC0-24 h, GM): 88.8 ng·h/mL
AUC(0-t) (po, Moderate hepatic impairment, single oral dose 20 mg E4 monohydrate, read-out: AUC0-24 h, Mean): 103 ng·h/mL
AUC(0-t) (po, Moderate hepatic impairment, single oral dose 20 mg E4 monohydrate, read-out: AUC0-24 h, Median): 92.6 ng·h/mL
AUC(0-inf) (po, Moderate hepatic impairment, single oral dose 20 mg E4 monohydrate, read-out: AUCinf, GM): 108 ng·h/mL
AUC(0-inf) (po, Moderate hepatic impairment, single oral dose 20 mg E4 monohydrate, read-out: AUCinf, Mean): 123 ng·h/mL
AUC(0-inf) (po, Moderate hepatic impairment, single oral dose 20 mg E4 monohydrate, read-out: AUCinf, Median): 115 ng·h/mL
AUC(0-t) (po, Moderate hepatic impairment, single oral dose 20 mg E4 monohydrate, read-out: AUClast, GM): 107 ng·h/mL
